Source: article PMC7236083 (Hormones & cancer, 2020)

Assays:
[1] = target: T1, progesterone receptor (PR) (Homo sapiens, UniProt P06401); assay: fluorescence polarization competitive binding assay
T1 sequence (P06401 675-933): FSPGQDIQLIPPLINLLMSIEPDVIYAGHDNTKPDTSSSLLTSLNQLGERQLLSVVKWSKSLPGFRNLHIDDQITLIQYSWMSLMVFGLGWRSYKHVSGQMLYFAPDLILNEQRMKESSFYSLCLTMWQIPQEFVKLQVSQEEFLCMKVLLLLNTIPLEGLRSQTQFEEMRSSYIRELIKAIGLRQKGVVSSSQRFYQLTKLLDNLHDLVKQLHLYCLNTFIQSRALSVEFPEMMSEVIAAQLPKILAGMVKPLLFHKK

[2] = target: T2, glucocorticoid receptor (GR) (Homo sapiens, UniProt P04150); assay: as above
T2 sequence (P04150 1-777): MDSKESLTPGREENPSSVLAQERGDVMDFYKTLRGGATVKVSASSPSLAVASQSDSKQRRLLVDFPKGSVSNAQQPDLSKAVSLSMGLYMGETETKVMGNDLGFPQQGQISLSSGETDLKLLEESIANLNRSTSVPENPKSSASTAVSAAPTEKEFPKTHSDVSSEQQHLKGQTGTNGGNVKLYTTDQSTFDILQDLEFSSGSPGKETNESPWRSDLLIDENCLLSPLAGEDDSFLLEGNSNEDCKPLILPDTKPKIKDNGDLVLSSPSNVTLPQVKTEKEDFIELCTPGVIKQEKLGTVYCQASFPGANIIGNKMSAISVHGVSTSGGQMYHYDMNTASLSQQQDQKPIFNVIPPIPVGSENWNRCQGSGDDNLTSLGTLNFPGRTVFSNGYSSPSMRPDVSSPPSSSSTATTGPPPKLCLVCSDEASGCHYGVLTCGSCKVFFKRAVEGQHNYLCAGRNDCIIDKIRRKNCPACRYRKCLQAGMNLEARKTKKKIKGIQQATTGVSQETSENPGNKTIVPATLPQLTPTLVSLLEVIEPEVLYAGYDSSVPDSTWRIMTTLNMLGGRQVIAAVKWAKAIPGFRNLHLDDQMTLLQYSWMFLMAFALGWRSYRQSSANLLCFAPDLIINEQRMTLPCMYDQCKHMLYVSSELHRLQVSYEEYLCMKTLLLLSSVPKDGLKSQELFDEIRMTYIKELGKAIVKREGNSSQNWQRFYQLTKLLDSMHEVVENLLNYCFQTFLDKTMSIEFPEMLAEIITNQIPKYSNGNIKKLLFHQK

O=c1cc(-c2ccccc2)oc2cc(O)c(O)c(O)c12 [baicalein]
IC50 [1]: 15.3 µM | IC50 [2]: 19.3 µM
